This note sets out measurements from patent EP2611798B1, “PYRIDAZINONES, METHOD OF MAKING, AND METHOD OF USE THEREOF” (Gilead Connecticut, Inc., priority 2010, dated 2012).

Usually EC50 stands for the concentration at which the effect is half-maximal. The low end stands for a more potent agent, the high end for a less potent agent. As a reminder, the IC50 is the concentration needed to halve the response being measured. Higher therefore signals a need for much substance.

In assay [1] the test system is CD86 surface expression. Description: CD86 Inhibition Assay (Example 905), inhibition of B cell activity in total mouse splenocytes. In kind it is cell-based, Balb/c mice. The settings on record: Splenocyte; total mouse splenocytes stimulated with 15 µg/ml IgM for 24 hr; gated on CD19+/7AAD- population. The method, then: A CD86 Inhibition assay can be conducted on Formula I compounds for the inhibition of B cell activity using total mouse splenocytes purified from spleens of 8-16 week old Balb/c mice (Example 905).
A generalized procedure for a standard assay for the inhibition of B cell activity that can be used to test Formula I compounds is as follows. Total mouse splenocytes are purified from spleens of 8-16 week old Balb/c mice by red blood cell lysis (BD Pharmingen #555899). Testing compounds are diluted to 0.5% DMSO and incubated with 1.25 x 10^6 splenocytes in a final volume of 200 µl in flat clear bottom plates (Falcon 353072) for 60 min at 37°C. Cells are then stimulated with the addition of 15 µg/ml IgM (Jackson ImmunoResearch 115-006-020), and incubated for 24 hr at 37°C, 5% CO2. Following the 24 hr incubation, cells are transferred to conical bottom clear 96-well plates and pelleted by centrifugation at 1200 x g x 5 min. Cells are preblocked by CD16/CD32 (BD Pharmingen #553142), followed by triple staining with CD19-FITC (BD Pharmingen #553785), CD86-PE (BD Pharmingen #553692), and 7AAD (BD Pharmingen #51-68981E). Cells are sorted on a BD FACSCalibur and gated on the CD19^+/7AAD^- population. The levels of CD86 surface expression on the gated population is measured versus test compound concentration. Exemplary results are in Table 3.

The target of assay [2] is T1, full length human wildtype Btk (Homo sapiens, UniProt Q06187).
T1 construct: V5 (C); 6xHis (C); made in house; host or cells: Sf9 insect cells (baculovirus, pFastBac)
T1 sequence (Q06187 whole entry): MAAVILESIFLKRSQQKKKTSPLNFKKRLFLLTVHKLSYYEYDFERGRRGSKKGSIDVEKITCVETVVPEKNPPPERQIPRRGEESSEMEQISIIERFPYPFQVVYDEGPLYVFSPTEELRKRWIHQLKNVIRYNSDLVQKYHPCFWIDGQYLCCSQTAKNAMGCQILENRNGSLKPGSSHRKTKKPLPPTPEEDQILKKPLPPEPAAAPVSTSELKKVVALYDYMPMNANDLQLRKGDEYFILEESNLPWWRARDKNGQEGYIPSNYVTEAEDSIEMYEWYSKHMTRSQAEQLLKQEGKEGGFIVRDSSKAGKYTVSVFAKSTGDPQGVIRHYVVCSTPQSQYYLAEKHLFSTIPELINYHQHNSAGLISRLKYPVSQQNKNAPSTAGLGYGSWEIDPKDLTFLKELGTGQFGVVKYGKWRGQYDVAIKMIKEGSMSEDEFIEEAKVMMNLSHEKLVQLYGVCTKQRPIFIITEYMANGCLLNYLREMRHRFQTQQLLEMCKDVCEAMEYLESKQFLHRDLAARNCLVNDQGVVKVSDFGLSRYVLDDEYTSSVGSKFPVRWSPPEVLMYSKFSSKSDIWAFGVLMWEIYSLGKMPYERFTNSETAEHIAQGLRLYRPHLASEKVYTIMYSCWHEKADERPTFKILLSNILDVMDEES
Description: Biochemical Btk Kinase Assay (Example 901). The note with it: time-resolved fluorescence, final ATP concentration 40 µM; alternatively Lanthascreen assay, ATP 25 uM. The method, then:
Formula I compounds were tested by a standard biochemical Btk Kinase Assay (Example 901). A generalized procedure for a standard biochemical Btk Kinase Assay that can be used to test Formula I compounds is as follows. […] Btk enzyme is prepared as follows: full length human wildtype Btk (accession number NM-000061) with a C-terminal V5 and 6x His tag was subcloned into pFastBac vector for making baculovirus carrying this epitope-tagged Btk. Generation of baculovirus is done based on Invitrogen's instructions detailed in its published protocol "Bac-to-Bac Baculovirus Expression Systems" (Cat. Nos. 10359-016 and 10608-016). Passage 3 virus is used to infect Sf9 cells to overexpress the recombinant Btk protein. The Btk protein is then purified to homogeneity using Ni-NTA column. The purity of the final protein preparation is greater than 95% based on the sensitive Sypro-Ruby staining. A solution of 200 µM ATP is prepared in water and adjusted to pH7.4 with 1N NaOH. A quantity of 1.25 µL of compounds in 5%DMSO is transferred to a 96-well ½ area Costar polystyrene plate. Compounds are tested singly and with an 11-point dose-responsive curve (starting concentration is 10 µM; 1:2 dilution). A quantity of 18.75 µL of master mix minus enzyme (as a negative control) and master mix plus enzyme is transferred to appropriate wells in 96-well ½ area costar polystyrene plate. 5 µL of 200 µM ATP is added to that mixture in the 96-well ½ area Costar polystyrene plate for final ATP concentration of 40 µM. The reaction is allowed to incubate for 1 hour at room temperature. The reaction is stopped with Perkin Elmer 1X detection buffer containing 30 mM EDTA, 20 nM SA-APC, and 1 nM PT66 Ab. The plate is read using time-resolved fluorescence with a Perkin Elmer Envision using excitation filter 330 nm, emission filter 665 nm, and 2nd emission filter 615 nm. IC50 values are subsequently calculated. Alternatively, the Lanthascreen assay can be used to evaluate Btk activity through quantification of its phosphorylated peptide product. The FRET (Fluorescence Resonance Energy Transfer) that occurs between the fluorescein on the peptide product and the terbium on the detection antibody decreases with the addition of inhibitors of Btk that reduce the phosphorylation of the peptide. […] After incubation for 60 minutes at room temperature, the reaction is stopped by the addition of a final concentration of 2 nM Tb-PY20 detection antibody in 60 mM EDTA for 30 minutes at room temperature. Detection is determined on a Perkin Elmer Envision with 340 nm excitation and emission at 495 nm and 520 nm. Exemplary Btk inhibition IC50 values are in Tables and 2.
In general terms: In TR-FRET formats the signal depends on donor and acceptor labels being close together.

As for `Cc1c(-c2cc(Nc3cc4n(n3)CCN(C)C4)c(=O)[nH]n2)cccc1N1Cc2cc(C(C)(C)C)sc2C1=O` [Compound 101, 6-(3-{2-tert-butyl-6-oxo-4H,5H,6H-thieno[2,3-c]pyrrol-5-yl}-2-methylphenyl)-4-({5-methyl-4H,5H,6H,7H-pyrazolo[1,5-a]pyrazin-2-yl}amino)-2,3-dihydropyridazin-3-one], the midpoint of the response in assay [1], the EC50, lay at 192 nM.
On to `Cc1c(-c2cc(Nc3cc(C)n(C)n3)c(=O)[nH]n2)cccc1N1Cc2cc(C(C)(C)C)sc2C1=O` [Compound 112, 6-(3-{2-tert-butyl-6-oxo-4H,5H,6H-thieno[2,3-c]pyrrol-5-yl}-2-methylphenyl)-4-[(1,5-dimethyl-1 H-pyrazol-3-yl)amino]-2,3-dihydropyridazin-3-one], for which, in assay [2], half-maximal inhibition (IC50) was put at 3 nM.
As to `Cc1cc(Nc2cc(-c3cccc(N4Cc5cc(C(C)(C)C)sc5C4=O)c3C)n[nH]c2=O)no1` [Compound 115, 6-(3-{2-tert-butyl-6-oxo-4H,5H,6H-thieno[2,3-c]pyrrol-5-yl}-2-methylphenyl)-4-[(5-methyl-1,2-oxazol-3-yl)amino]-2,3-dihydropyridazin-3-one], it took 18 nM to reach half-maximal inhibition in assay [2] (IC50).
On the same count and under the same terms, next, `Cc1cc(Nc2cc(-c3ccc(F)c(N4Cc5cc(C(C)(C)C)sc5C4=O)n3)n[nH]c2=O)nn1C` [Compound 117, 6-(6-{2-tert-butyl-b-oxo-4H,5H,6H-thieno[2,3-c]pyrrol-5-yl}-5-fluoropyridin-2-yl)-4-[(1,5-dimethyl-1H-pyrazol-3-yl)amino]-2,3-dihydropyridazin-3-one]: 45 nM; `Cc1c(-c2cc(Nc3nc4c(s3)CNCC4)c(=O)[nH]n2)cccc1N1Cc2cc(C(C)(C)C)sc2C1=O` [Compound 118, 6-(3-{2-tert-butyl-6-oxo-4H,5H,6H-thieno[2,3-c]pyrrol-5-yl}-2-methylphenyl)-4-{4H,5H,6H,7H-pyrido[4,3-d][1,3]thiazol-2-ylamino}-2,3-dihydropyridazin-3-one]: 65 nM.
For the compound `Cc1c(-c2cc(Nc3cc(CN4CC(F)(F)C4)n(C)n3)c(=O)[nH]n2)cccc1N1Cc2cc(C(C)(C)C)sc2C1=O` [Compound 119, 6-(3-{2-tert-butyl-6-oxo-4H,5H,6H-thieno[2,3-c]pyrrol-5-yl}-2-methylphenyl)-4-({5-[(3,3-difluoroazetidin-1-yl)methyl]-1-methyl-1H-pyrazol-3-yl}amino)-2,3-dihydropyridazin-3-one], the EC50 in assay [1] turned out to be 352 nM. This compound also had an IC50 in assay [2] of 5 nM.
Compound `CN1CCn2nc(Nc3cc(-c4cccc(N5Cc6cc(C(C)(C)C)sc6C5=O)c4CO)nn(C)c3=O)cc2C1` [Compound 120, 6-(3-{2-tert-butyl-6-oxo-4H,5H,6H-thieno[2,3-c]pyrrol-5-yl}-2-(hydroxymethyl)phenyl)-2-methyl-4-({5-methyl-4H,5H,6H,7H-pyrazolo[1,5-a]pyrazin-2-yl}amino)-2,3-dihydropyridazin-3-one] returned an EC50 in assay [1] of 189 nM. Further, the IC50 in assay [2] was found to be 55 nM.
Take `Cc1c(-c2cc(Nc3cc4n(n3)CCN(C)C4)c(=O)n(C)n2)cc(F)cc1N1Cc2cc(C(C)(C)C)sc2C1=O` [Compound 124, 6-(3-{2-tert-butyl-6-oxo-4H,5H,6H-thieno[2,3-c]pyrrol-5-yl}-5-fluoro-2-methylphenyl)-2-methyl-4-({5-methyl-4H,5H,6H,7H-pyrazolo[1,5-a]pyrazin-2-yl}amino)-2,3-dihydropyridazin-3-one]: a half-maximal effect in assay [1] (EC50) was put at 1100 nM.
As to `Cn1nc(-c2cccc(N3Cc4cc(C(C)(C)C)sc4C3=O)c2CO)cc(Nc2cc(C3CC3)[nH]n2)c1=O` [Compound 127, 6-(3-{2-tert-butyl-6-oxo-4H,5H,6H-thieno[2,3-c]pyrrol-5-yl}-2-(hydroxymethyl)phenyl)-4-[(5-cyclopropyl-1H-pyrazol-3-yl)amino]-2-methyl-2,3-dihydropyridazin-3-one], the EC50 in assay [1] was 178 nM.
In assay [1], `Cc1cc(Nc2cc(-c3cccc(N4Cc5cc(C(C)(C)C)sc5C4=O)c3CO)nn(C)c2=O)nn1C` [Compound 131, 6-(3-{2-tert-butyl-6-oxo-4H,5H,6H-thieno[2,3-c]pyrrol-5-yl}-2-(hydroxymethyl)phenyl)-4-[(1,5-dimethyl-1H-pyrazol-3-yl)amino]-2-methyl-2,3-dihydropyridazin-3-one] yielded an EC50 of 139 nM.
Still for that read-out and setting: next, `CC(=O)N1CCn2nc(Nc3cc(-c4cccc(N5Cc6cc(C(C)(C)C)sc6C5=O)c4CO)nn(C)c3=O)cc2C1` [Compound 132, 6-(3-{2-tert-butyl-6-oxo-4H,5H,6H-thieno[2,3-c]pyrrol-5-yl}-2-(hydroxymethyl)phenyl)-4-({5-acetyl-4H,5H,6H,7H-pyrazolo[1,5-a]pyrazin-2-yl}amino)-2-methyl-2,3-dihydropyridazin-3-one]: 113 nM.
On the same count and under the same terms, next, `Cn1nc(-c2cccc(N3Cc4cc(C(C)(C)C)sc4C3=O)c2CO)cc(Nc2cc3n(n2)CCCOC3)c1=O` [Compound 134, 6-(3-{2-tert-butyl-6-oxo-4H,5H,6H-thieno[2,3-c]pyrrol-5-yl}-2-(hydroxymethyl)phenyl)-2-methyl-4-{4H,6H,7H,8H-pyrazolo[3,2-c][1,4]oxazepin-2-ylamino}-2,3-dihydropyridazin-3-one]: 206 nM.
In assay [1], `Cn1nc(-c2cccc(N3Cc4cc(C(C)(C)C)sc4C3=O)c2CO)cc(Nc2ccncn2)c1=O` [Compound 136, 6-(3-{2-tert-butyl-6-oxo-4H,5H,6H-thieno[2,3-c]pyrrol-5-yl}-2-(hydroxymethyl)phenyl)-2-methyl-4-(pyrimidin-4-ylamino)-2,3-dihydropyridazin-3-one] showed an EC50 of 704 nM.
